Source: the NIST ThermoML archive (doi:10.1016/j.jct.2017.08.004)

Assay: molar heat capacity at constant pressure
Settings: 101.33 kPa, Crystal

OC[C@@H](O)[C@@H](O)[C@H](O)[C@H](O)CO [D-mannitol]
molar heat capacity at constant pressure [J/K/mol]
Settings	Small sample (50 mg) DSC	relaxation calorimetry
289.15 K	223.23	–
290 K	–	224.45
290.15 K	223.75	–
291.15 K	224.51	–
292.15 K	225.52	–
292.3 K	–	226.18
293.15 K	226.11	–
294.15 K	226.79	–
295.15 K	227.7	–
296.15 K	228.45	–
297.15 K	229.12	–
298.15 K	229.81	230.54
299.15 K	230.64	–
300 K	–	231.93
300.15 K	231.67	–
301.15 K	232.46	–
302.15 K	233.28	–
302.32 K	–	233.27
303.15 K	234.21	–
304.15 K	235.1	–
305 K	236.23	–
305.15 K	236.24	–
306.15 K	237.06	–
307.15 K	238.05	–
308.15 K	239.43	–
309.15 K	240.22	–
310 K	241.08	–
310.15 K	241.1	–
311.15 K	242.22	–
312.15 K	243.21	–
313.15 K	244.03	–
314.15 K	244.96	–
315 K	245.72	–
315.15 K	245.76	–
316.15 K	246.45	–
317.15 K	247.23	–
318.15 K	248.19	–
319.15 K	249.13	–
320 K	250.2	–
320.15 K	250.01	–
321.15 K	250.96	–
322.15 K	251.62	–
323.15 K	252.78	–
324.15 K	253.84	–
325 K	254.58	–
325.15 K	254.69	–
326.15 K	255.76	–
327.15 K	256.67	–
328.15 K	257.61	–
329.15 K	258.51	–
330 K	258.9	–
330.15 K	259.36	–
331.15 K	260.09	–
332.15 K	260.73	–
333.15 K	261.83	–
334.15 K	262.7	–
335 K	263.16	–
335.15 K	263.13	–
336.15 K	263.97	–
337.15 K	264.87	–
338.15 K	265.55	–
339.15 K	266.62	–
340 K	267.39	–
340.15 K	267.34	–
341.15 K	268.11	–
342.15 K	269.07	–
343.15 K	270.04	–
344.15 K	271.03	–
345 K	271.57	–
345.15 K	272.18	–
346.15 K	272.93	–
347.15 K	273.5	–
348.15 K	274.48	–
349.15 K	275.36	–
350 K	275.71	–
350.15 K	275.83	–
351.15 K	276.6	–
352.15 K	277.59	–
353.15 K	278.11	–
354.15 K	278.88	–
355 K	279.8	–
355.15 K	279.75	–
356.15 K	280.45	–
357.15 K	281.3	–
358.15 K	282.01	–
359.15 K	282.77	–
360 K	283.81	–
360.15 K	283.45	–
361.15 K	284.29	–
362.15 K	285.29	–
363.15 K	285.81	–
364.15 K	286.87	–
365 K	287.75	–
365.15 K	287.69	–
366.15 K	288.42	–
367.15 K	289.35	–
368.15 K	290.07	–
369.15 K	290.83	–
370 K	291.59	–
370.15 K	291.54	–
371.15 K	292.39	–
